Test: NBI-750142 concentration in cynomolgus monkey plasma by LC-MS/MS
Format: in vivo, cynomolgus monkeys (Macaca fascicularis)
Details: for concentration at 30 min / concentration at 60 min / concentration at 90 min / concentration at 120 min / concentration at 150 min / concentration at 180 min / concentration at 1 min: cynomolgus monkey, intravenous
Protocol: During each scan, whole blood PK samples were collected (in K2 EDTA tubes) at pre-dose (−5 min), and post-dose at 1 (end of bolus), 30, 60 (just prior to [^18F]AV-133 radiopharmaceutical administration), 90, 120, 150, 180 (end of scan) minutes after test article administration. PK samples were approximately 1 mL each (8 mL total, including pre-dose sample). PK sample collection times were relative to start of NBI-750142 bolus administration.
NBI-750142 concentration in cynomolgus monkey plasma samples was analyzed using a qualified LC-MS/MS bioanalytical method. […] Plasma samples were processed using protein precipitation extraction with 0.1% formic acid in acetonitrile and the addition of stable deuterium isotope labeled internal standard NBI-750142-D6. Processed samples were chromatographically separated on a C18 column and coupled to a Sciex API 4000 triple quadrupole mass spectrometer.
The method used in this study was qualified for a range of 0.250 to 250 ng/mL based on the analysis of 100 μL of plasma by LC-MS-MS. Quantitation was performed using a weighted 1/×2 linear least squares regression analysis generated from calibration standards. The protein precipitation extraction procedure began with the addition of internal standard solution (20.0 μL of approximately 100 ng/mL deuterated NBI-750142-D6). After adding 400 μL of acetonitrile/formic acid (1000:1.00), the tubes were sealed, vortexed and centrifuged. Subsequently, 100 μL of the supernatant was transferred to a new plate containing 400 μL of water/formic acid (1000:1.00). […] A triple quadrupole mass spectrometer (Sciex API 4000) equipped with TurboIonSpray source was used in the positive ion mode. Quantitation was based on multiple reaction monitoring (MRM) of m/z transitions of NBI-750142 and NBI-750142-D6.

[1] = 0.026 mg/kg, GC786, 0.026 mg/kg i.v.
[2] = 0.084 mg/kg, EC865, 0.084 mg/kg i.v.
[3] = 0.26 mg/kg, GC786, 0.26 mg/kg i.v.
[4] = 0.26 mg/kg, LC206, 0.26 mg/kg i.v.
[5] = 0.52 mg/kg, EC865, 0.52 mg/kg i.v.
[6] = 0.78 mg/kg, GC786, 0.78 mg/kg i.v.

COc1cc2c(cc1OC)[C@H]1CN(C)[C@H](CC(C)(C)C)CN1CC2 [NBI-750142]
Mean ng/mL NBI-750142 Concentration during PET Scan (60-180 min) (EC865, 0.084 mg/kg i.v.): 6.4 ng/mL | Mean ng/mL NBI-750142 Concentration during PET Scan (60-180 min) (EC865, 0.52 mg/kg i.v.): 37.6 ng/mL | Mean ng/mL NBI-750142 Concentration during PET Scan (60-180 min) (GC786, 0.026 mg/kg i.v.): 2.9 ng/mL | ng/mL NBI-750142 at 1 min (GC786, 0.026 mg/kg i.v., BLQ = <0.250 ng/mL): BLQ | Mean ng/mL NBI-750142 Concentration during PET Scan (60-180 min) (GC786, 0.26 mg/kg i.v.): 12.3 ng/mL | Mean ng/mL NBI-750142 Concentration during PET Scan (60-180 min) (GC786, 0.78 mg/kg i.v.): 74.5 ng/mL | Mean ng/mL NBI-750142 Concentration during PET Scan (60-180 min) (LC206, 0.26 mg/kg i.v.): 35.7 ng/mL | concentration at 30 min [1]: 2.31 ng/mL | concentration at 60 min [1]: 2.24 ng/mL | concentration at 90 min [1]: 2.56 ng/mL | concentration at 120 min [1]: 2.69 ng/mL | concentration at 150 min [1]: 3.69 ng/mL | concentration at 180 min [1]: 3.1 ng/mL | concentration at 1 min [2]: 108 ng/mL | concentration at 30 min [2]: 7.42 ng/mL | concentration at 60 min [2]: 6.04 ng/mL | concentration at 90 min [2]: 5.91 ng/mL | concentration at 120 min [2]: 5.85 ng/mL | concentration at 150 min [2]: 7.34 ng/mL | concentration at 180 min [2]: 7.07 ng/mL | concentration at 1 min [3]: 102 ng/mL | concentration at 30 min [3]: 18.4 ng/mL | concentration at 60 min [3]: 10.6 ng/mL | concentration at 90 min [3]: 6.85 ng/mL | concentration at 120 min [3]: 13.4 ng/mL | concentration at 150 min [3]: 15.2 ng/mL | concentration at 180 min [3]: 15.3 ng/mL | concentration at 1 min [4]: 119 ng/mL | concentration at 30 min [4]: 31 ng/mL | concentration at 60 min [4]: 26 ng/mL | concentration at 90 min [4]: 38.3 ng/mL | concentration at 120 min [4]: 41.1 ng/mL | concentration at 150 min [4]: 37.7 ng/mL | concentration at 180 min [4]: 35.2 ng/mL | concentration at 1 min [5]: 295 ng/mL | concentration at 30 min [5]: 45.1 ng/mL | concentration at 60 min [5]: 36.9 ng/mL | concentration at 90 min [5]: 35.3 ng/mL | concentration at 120 min [5]: 36.2 ng/mL | concentration at 150 min [5]: 38.4 ng/mL | concentration at 180 min [5]: 41.3 ng/mL | concentration at 1 min [6]: 186 ng/mL | concentration at 30 min [6]: 63 ng/mL | concentration at 60 min [6]: 65.2 ng/mL | concentration at 90 min [6]: 69.9 ng/mL | concentration at 120 min [6]: 75.1 ng/mL | concentration at 150 min [6]: 76 ng/mL | concentration at 180 min [6]: 86.5 ng/mL

Source: patent US20250064990A1, “METHODS OF SCREENING FOR VMAT2 INHIBITORS” (Neurocrine Biosciences, Inc., priority 2021, published 2025)
